In patent publication US20260130395A1, “Water Dispersible Botanical Compositions” (Aquila Black Limited, priority 2021, published 2026):

Experiment: Stability of cannabinoid compounds and Vitamin E components in Beverage 2 (AB Red) by LCMSMS
Type: physicochemical
Method: The stability of the plant-derived cannabinoid compounds and Vitamin E components of the beverage stored 8° C. and at room temperature (21-25° C.) were monitored, over a period of 570 days via Liquid Chromatography-tandem Mass Spectrometry [LCMSMS, AGilent 6590, C18, 3×50 mm, 2.7 m (Agilent InfinityLab Poroshell 120 EC-C18), Electrospray Ionization detector]. The LCMSMS was calibrated for 0-50 ng/ml cannabinoids with the same resin material used in the preparation of the concentrates. At each time period, 100 ml of beverage was diluted with 10 ml of methanol and injected into the LCMSMS for analysis.

CC(=O)Oc1c(C)c(C)c2c(c1C)CCC(C)(CCC[C@H](C)CCC[C@H](C)CCCC(C)C)O2 (stereo partly drawn) [α-Tocopheryl acetate]
Stability of Vitamin Es in AB Red (stored at 8° C., 0 days): 12.5 µg/mL | Stability of Vitamin Es in AB Red (stored at 8° C., 1 days): 11.6 µg/mL | Stability of Vitamin Es in AB Red (stored at 8° C., 2 days): 11.5 µg/mL | Stability of Vitamin Es in AB Red (stored at 8° C., 3 days): 11.6 µg/mL | Stability of Vitamin Es in AB Red (stored at 8° C., 5 days): 12.3 µg/mL | Stability of Vitamin Es in AB Red (stored at 8° C., 8 days): 12.2 µg/mL | Stability of Vitamin Es in AB Red (stored at 8° C., 9 days): 12.1 µg/mL | Stability of Vitamin Es in AB Red (stored at 8° C., 10 days): 12.6 µg/mL | Stability of Vitamin Es in AB Red (stored at 8° C., 11 days): 11.9 µg/mL | Stability of Vitamin Es in AB Red (stored at 8° C., 12 days): 12.4 µg/mL | Stability of Vitamin Es in AB Red (stored at 8° C., 15 days): 12.0 µg/mL | Stability of Vitamin Es in AB Red (stored at 8° C., 16 days): 11.5 µg/mL | Stability of Vitamin Es in AB Red (stored at 8° C., 17 days): 11.8 µg/mL | Stability of Vitamin Es in AB Red (stored at 8° C., 18 days): 12.5 µg/mL | Stability of Vitamin Es in AB Red (stored at 8° C., 19 days): 12.5 µg/mL | Stability of Vitamin Es in AB Red (stored at 8° C., 22 days): 12.5 µg/mL | Stability of Vitamin Es in AB Red (stored at 8° C., 23 days): 11.9 µg/mL | Stability of Vitamin Es in AB Red (stored at 8° C., 24 days): 12.6 µg/mL | Stability of Vitamin Es in AB Red (stored at 8° C., 25 days): 12.3 µg/mL | Stability of Vitamin Es in AB Red (stored at 8° C., 26 days): 11.6 µg/mL | Stability of Vitamin Es in AB Red (stored at 8° C., 29 days): 11.7 µg/mL | Stability of Vitamin Es in AB Red (stored at 8° C., 30 days): 12.1 µg/mL | Stability of Vitamin Es in AB Red (stored at 8° C., 60 days): 11.4 µg/mL | Stability of Vitamin Es in AB Red (stored at 8° C., 90 days): 11.6 µg/mL | Stability of Vitamin Es in AB Red (stored at 8° C., 120 days): 11.7 µg/mL | Stability of Vitamin Es in AB Red (stored at 8° C., 150 days): 12.3 µg/mL | Stability of Vitamin Es in AB Red (stored at 8° C., 180 days): 12.6 µg/mL | Stability of Vitamin Es in AB Red (stored at 8° C., 210 days): 11.8 µg/mL | Stability of Vitamin Es in AB Red (stored at 8° C., 240 days): 11.2 µg/mL | Stability of Vitamin Es in AB Red (stored at 8° C., 270 days): 11.6 µg/mL | Stability of Vitamin Es in AB Red (stored at 8° C., 300 days): 11.2 µg/mL | Stability of Vitamin Es in AB Red (stored at 8° C., 330 days): 11.3 µg/mL | Stability of Vitamin Es in AB Red (stored at 8° C., 360 days): 11.3 µg/mL | Stability of Vitamin Es in AB Red (stored at 8° C., 390 days): 11.4 µg/mL | Stability of Vitamin Es in AB Red (stored at 8° C., 420 days): 11.2 µg/mL | Stability of Vitamin Es in AB Red (stored at 8° C., 450 days): 11.4 µg/mL | Stability of Vitamin Es in AB Red (stored at 8° C., 480 days): 10.7 µg/mL | Stability of Vitamin Es in AB Red (stored at 8° C., 510 days): 10.6 µg/mL | Stability of Vitamin Es in AB Red (stored at 8° C., 540 days): 10.8 µg/mL | Stability of Vitamin Es in AB Red (stored at 8° C., 570 days): 10.8 µg/mL | Stability of Vitamin Es in AB Red (stored at 21-25° C., 0 days): 12.5 µg/mL | Stability of Vitamin Es in AB Red (stored at 21-25° C., 1 days): 12.1 µg/mL | Stability of Vitamin Es in AB Red (stored at 21-25° C., 2 days): 12.5 µg/mL | Stability of Vitamin Es in AB Red (stored at 21-25° C., 3 days): 11.7 µg/mL | Stability of Vitamin Es in AB Red (stored at 21-25° C., 5 days): 12.2 µg/mL | Stability of Vitamin Es in AB Red (stored at 21-25° C., 8 days): 11.4 µg/mL | Stability of Vitamin Es in AB Red (stored at 21-25° C., 9 days): 11.6 µg/mL | Stability of Vitamin Es in AB Red (stored at 21-25° C., 10 days): 12.5 µg/mL | Stability of Vitamin Es in AB Red (stored at 21-25° C., 11 days): 12.3 µg/mL | Stability of Vitamin Es in AB Red (stored at 21-25° C., 12 days): 12.3 µg/mL | Stability of Vitamin Es in AB Red (stored at 21-25° C., 15 days): 12.1 µg/mL | Stability of Vitamin Es in AB Red (stored at 21-25° C., 16 days): 12.1 µg/mL | Stability of Vitamin Es in AB Red (stored at 21-25° C., 17 days): 11.3 µg/mL | Stability of Vitamin Es in AB Red (stored at 21-25° C., 18 days): 12.0 µg/mL | Stability of Vitamin Es in AB Red (stored at 21-25° C., 19 days): 12.0 µg/mL | Stability of Vitamin Es in AB Red (stored at 21-25° C., 22 days): 12.1 µg/mL | Stability of Vitamin Es in AB Red (stored at 21-25° C., 23 days): 11.7 µg/mL | Stability of Vitamin Es in AB Red (stored at 21-25° C., 24 days): 11.5 µg/mL | Stability of Vitamin Es in AB Red (stored at 21-25° C., 25 days): 12.4 µg/mL | Stability of Vitamin Es in AB Red (stored at 21-25° C., 26 days): 12.0 µg/mL | Stability of Vitamin Es in AB Red (stored at 21-25° C., 29 days): 11.9 µg/mL | Stability of Vitamin Es in AB Red (stored at 21-25° C., 30 days): 12.6 µg/mL | Stability of Vitamin Es in AB Red (stored at 21-25° C., 60 days): 11.6 µg/mL | Stability of Vitamin Es in AB Red (stored at 21-25° C., 90 days): 12.3 µg/mL | Stability of Vitamin Es in AB Red (stored at 21-25° C., 120 days): 12.3 µg/mL | Stability of Vitamin Es in AB Red (stored at 21-25° C., 150 days): 11.4 µg/mL | Stability of Vitamin Es in AB Red (stored at 21-25° C., 180 days): 12.0 µg/mL | Stability of Vitamin Es in AB Red (stored at 21-25° C., 210 days): 11.6 µg/mL | Stability of Vitamin Es in AB Red (stored at 21-25° C., 240 days): 11.3 µg/mL | Stability of Vitamin Es in AB Red (stored at 21-25° C., 270 days): 11.4 µg/mL | Stability of Vitamin Es in AB Red (stored at 21-25° C., 300 days): 11.2 µg/mL | Stability of Vitamin Es in AB Red (stored at 21-25° C., 330 days): 11.6 µg/mL | Stability of Vitamin Es in AB Red (stored at 21-25° C., 360 days): 11.1 µg/mL | Stability of Vitamin Es in AB Red (stored at 21-25° C., 390 days): 11.3 µg/mL | Stability of Vitamin Es in AB Red (stored at 21-25° C., 420 days): 11.3 µg/mL | Stability of Vitamin Es in AB Red (stored at 21-25° C., 450 days): 11.2 µg/mL | Stability of Vitamin Es in AB Red (stored at 21-25° C., 480 days): 10.4 µg/mL | Stability of Vitamin Es in AB Red (stored at 21-25° C., 510 days): 10.4 µg/mL | Stability of Vitamin Es in AB Red (stored at 21-25° C., 540 days): 10.6 µg/mL | Stability of Vitamin Es in AB Red (stored at 21-25° C., 570 days): 10.6 µg/mL
